System: MCH receptors
Experiment: MCH receptor activity class (method not given)
[1] = class by percent of control at 10^-7 M or IC50
[2] = MCH receptor activity class 1-3 (percent of control at 10^-7 M or IC50)
[3] = class by percent of control at 10^−7 M or IC50
[4] = activity class per percent of control at 10^-7 M or IC50
[5] = MCH receptor, class by percent of control at 10^-7 M or IC50
[6] = activity class 1-3: percent of control at 10^-7 M or IC50
[7] = class 1-3 by percent of control at 10^-7 M or IC50

**Q.** How did the class [1] turn out when `CC(C)S(=O)(=O)c1csc(C(=O)N[C@H]2CC[C@@H](Nc3nccc(N(C)C)n3)CC2)c1Cl` [compound 319] was run?
**A.** The class was 3 (Class 3 The value of percent of control at 10^−7 M was more than 60% or the value of IC50 was more than 200 nM.).

**Q.** Which class [2] does the source give for `CN(C)c1cc(N[C@H]2CC[C@@H](NC(=S)NCc3cccc4ccccc34)CC2)nc2ccccc12` [compound 2287] here?
**A.** The class was 3 (Class 3 The value of percent of control at 10^−7 M was more than 60% or the value of IC50 was more than 200 nM.).

**Q.** With `COc1ccc(Oc2ncccc2C(=O)N[C@H]2CC[C@@H](Nc3ncc(C)c(N(C)C)n3)CC2)cc1` [compound 2888, N-(cis-4-{[4-(dimethylamino)-5-methylpyrimidin-2-yl]amino}cyclohexyl)-2-(4-methoxyphenoxy)nicotinamide] as the compound, how does the class [3] read?
**A.** The class was 1 (Class 1: The value of percent of control at 10^−7 M was less than 40% or the value of IC50 was less than 50 nM.).

**Q.** For `CN(C)c1cc(N[C@H]2CC[C@@H](NCc3cncc(-c4ccc(F)cc4)c3)CC2)nc2ccccc12` [compound 1114], which class [4] is on record?
**A.** Its class is 3 (Class 3 The value of percent of control at 10^−7 M was more than 60% or the value of IC50 was more than 200 nM.).

**Q.** `COc1cc(CN[C@H]2CC[C@@H](Nc3cc(N(C)C)c4ccccc4n3)CC2)cc(I)c1O` [compound 1102] was tested. Which class [4] did it give?
**A.** Its class is 3 (Class 3 The value of percent of control at 10^−7 M was more than 60% or the value of IC50 was more than 200 nM.).

**Q.** Which class [1] does the source give for `CN(C)c1ccnc(N[C@H]2CC[C@@H](NC(=O)CCCc3ccc([N+](=O)[O-])cc3)CC2)n1` [compound 864, N-(cis-4-{[4-(dimethylamino)pyrimidin-2-yl]amino}cyclohexyl)-4-(4-nitrophenyl)butanamide] here?
**A.** Its class is 2 (Class 2: The value of percent of control at 10^−7 M was from 40% to 60% or the value of IC′50 was from 50 nM to 200 nM.).

**Q.** With `COc1ccc(C)cc1NC(=S)N[C@H]1CC[C@@H](Nc2nccc(N(C)C)n2)CC1` [compound 2315] as the compound, how does the class [2] read?
**A.** Its class is 3 (Class 3 The value of percent of control at 10^−7 M was more than 60% or the value of IC50 was more than 200 nM.).

**Q.** For `CN(C)c1nc(N[C@H]2CC[C@@H](CNC(=O)c3ccc(F)c(Cl)c3)CC2)nc2c1CCCC2` [compound 635], which class [1] is on record?
**A.** The class was 3 (Class 3 The value of percent of control at 10^−7 M was more than 60% or the value of IC50 was more than 200 nM.).

**Q.** How did the class [5] turn out when `CN(C)c1cc(N[C@H]2CC[C@@H](NC(=O)COCc3ccccc3)CC2)nc2ccccc12` [compound 95] was run?
**A.** The class was 3 (Class 3 The value of percent of control at 10^−7 M was more than 60% or the value of IC50 was more than 200 nM.).

**Q.** Which class [3] does the source give for `Cc1cnc(N[C@H]2CC[C@@H](C(=O)N[C@@H](C)c3ccc([N+](=O)[O-])cc3)CC2)nc1N(C)C` [compound 2781, cis-4-{[4-(dimethylamino)-5-methylpyrimidin-2-yl]amino}-N-[(1S)-1-(4-nitrophenyl)ethyl]cyclohexanecarboxamide] here?
**A.** Its class is 2 (Class 2: The value of percent of control at 10^−7 M was from 40% to 60% or the value of IC′50 was from 50 nM to 200 nM.).

**Q.** How did the class [6] turn out when `CN(C)c1cc(N[C@H]2CC[C@@H](NC(=O)OCc3ccccc3Cl)CC2)nc2ccccc12` [compound 1556] was run?
**A.** Its class is 3 (Class 3 The value of percent of control at 10^−7 M was more than 60% or the value of IC50 was more than 200 nM.).

**Q.** For `COc1ccc(C(=O)N[C@H]2CC[C@@H](Nc3cc(N(C)C)c4ccccc4n3)CC2)cc1OC` [compound 104], which class [5] is on record?
**A.** The class was 3 (Class 3 The value of percent of control at 10^−7 M was more than 60% or the value of IC50 was more than 200 nM.).

**Q.** Which class [1] does the source give for `CN(C)c1ccnc(N[C@H]2CC[C@@H](NC(=O)CCc3ccccc3O)CC2)n1` [compound 818] here?
**A.** Its class is 3 (Class 3 The value of percent of control at 10^−7 M was more than 60% or the value of IC50 was more than 200 nM.).

**Q.** How did the class [6] turn out when `CN(C)c1ccnc(N[C@H]2CC[C@@H](NC(=O)OCC(Cl)(Cl)Cl)CC2)n1` [compound 1638] was run?
**A.** Its class is 3 (Class 3 The value of percent of control at 10^−7 M was more than 60% or the value of IC50 was more than 200 nM.).

**Q.** `CN(C)c1cc(N[C@H]2CC[C@@H](NC(=O)CC3CCCC3)CC2)nc2ccccc12` [compound 75] was tested. Which class [5] did it give?
**A.** The class was 3 (Class 3 The value of percent of control at 10^−7 M was more than 60% or the value of IC50 was more than 200 nM.).

**Q.** With `CN(C)c1ccnc(N[C@H]2CC[C@@H](NC(=O)c3ccccc3C(=O)c3cccc4ccccc34)CC2)n1` [compound 888] as the compound, how does the class [1] read?
**A.** Its class is 3 (Class 3 The value of percent of control at 10^−7 M was more than 60% or the value of IC50 was more than 200 nM.).

**Q.** With `COc1cccc(CC(=O)N[C@H]2CC[C@@H](Nc3cc(N(C)C)c4ccccc4n3)CC2)c1` [compound 67] as the compound, how does the class [5] read?
**A.** Its class is 3 (Class 3 The value of percent of control at 10^−7 M was more than 60% or the value of IC50 was more than 200 nM.).

**Q.** With `CCc1ccccc1NC(=S)N[C@H]1CC[C@@H](Nc2nccc(N(C)C)n2)CC1` [compound 2268] as the compound, how does the class [1] read?
**A.** Its class is 3 (Class 3 The value of percent of control at 10^−7 M was more than 60% or the value of IC50 was more than 200 nM.).

**Q.** `CN(C)c1cc(N[C@H]2CC[C@@H](NC(=O)c3c4ccccc4cc4ccccc34)CC2)nc2ccccc12` [compound 753] was tested. Which class [1] did it give?
**A.** The class was 3 (Class 3 The value of percent of control at 10^−7 M was more than 60% or the value of IC50 was more than 200 nM.).

**Q.** With `CN(C)c1nc(N[C@H]2CC[C@@H](NC(=S)Nc3ccc(F)cc3Br)CC2)nc2c1CCCC2` [compound 2070] as the compound, how does the class [5] read?
**A.** The class was 3 (Class 3 The value of percent of control at 10^−7 M was more than 60% or the value of IC50 was more than 200 nM.).

**Q.** Which class [7] does the source give for `Cc1cc(=O)oc2c(OCC(=O)N[C@H]3CC[C@@H](Nc4nc5c(c(N(C)C)n4)CCCC5)CC3)cccc12` [compound 580] here?
**A.** The class was 3 (Class 3 The value of percent of control at 10^−7 M was more than 60% or the value of IC50 was more than 200 nM.).

**Q.** `Cc1cccc(Cl)c1NC(=O)N[C@H]1CC[C@@H](Nc2nccc(N(C)C)n2)CC1` [compound 2194] was tested. Which class [1] did it give?
**A.** The class was 3 (Class 3 The value of percent of control at 10^−7 M was more than 60% or the value of IC50 was more than 200 nM.).

**Q.** With `CN(C)c1cc(N[C@H]2CC[C@@H](NC(=O)Cc3ccccc3I)CC2)nc2ccccc12` [compound 681, N-(cis-4-{[4-(dimethylamino)quinolin-2-yl]amino}cyclohexyl)-2-(2-iodophenyl)acetamide] as the compound, how does the class [1] read?
**A.** The class was 2 (Class 2: The value of percent of control at 10^−7 M was from 40% to 60% or the value of IC′50 was from 50 nM to 200 nM.).

**Q.** Which class [5] does the source give for `Cc1cccc(CNC(=S)N[C@H]2CC[C@@H](Nc3nc4c(c(N(C)C)n3)CCCC4)CC2)c1` [compound 2045] here?
**A.** The class was 3 (Class 3 The value of percent of control at 10^−7 M was more than 60% or the value of IC50 was more than 200 nM.).

**Q.** For `CN(C)c1cc(N[C@H]2CC[C@@H](CNC(=O)Cc3cccs3)CC2)nc2ccccc12` [compound 180], which class [5] is on record?
**A.** The class was 3 (Class 3 The value of percent of control at 10^−7 M was more than 60% or the value of IC50 was more than 200 nM.).

**Q.** Which class [1] does the source give for `Cc1ccc(C(=O)N[C@H]2CC[C@@H](Nc3nccc(N(C)C)n3)CC2)cc1[N+](=O)[O-]` [compound 261, N-(cis-4-{[4-(dimethylamino)pyrimidin-2-yl]amino}cyclohexyl)-4-methyl-3-nitrobenzamide] here?
**A.** The class was 2 (Class 2: The value of percent of control at 10^−7 M was from 40% to 60% or the value of IC′50 was from 50 nM to 200 nM.).

**Q.** Which class [1] does the source give for `CN(C)c1ccnc(N[C@H]2CC[C@@H](NC(=O)Cc3c(Cl)ccc(Cl)c3Cl)CC2)n1` [compound 813] here?
**A.** Its class is 3 (Class 3 The value of percent of control at 10^−7 M was more than 60% or the value of IC50 was more than 200 nM.).

**Q.** For `CN(C)c1nc(N[C@H]2CC[C@@H](NC(=O)c3cccc(Oc4ccccc4)c3)CC2)nc2c1CCCC2` [compound 1007], which class [4] is on record?
**A.** The class was 1 (Class 1: The value of percent of control at 10^−7 M was less than 40% or the value of IC50 was less than 50 nM.).

**Q.** How did the class [1] turn out when `COc1cc(CN[C@H]2CC[C@@H](Nc3nccc(N(C)C)n3)CC2)ccc1O` [compound 1241] was run?
**A.** Its class is 3 (Class 3 The value of percent of control at 10^−7 M was more than 60% or the value of IC50 was more than 200 nM.).

**Q.** With `CCOC(=O)c1c(NC(=S)N[C@H]2CC[C@@H](Nc3nc4c(c(N(C)C)n3)CCCC4)CC2)sc2c1CCCC2` [compound 2069] as the compound, how does the class [5] read?
**A.** The class was 3 (Class 3 The value of percent of control at 10^−7 M was more than 60% or the value of IC50 was more than 200 nM.).

**Q.** For `Cc1cccc(C(C)C)c1NC(=S)N[C@H]1CC[C@@H](Nc2cc(N(C)C)c3ccccc3n2)CC1` [compound 2303], which class [2] is on record?
**A.** The class was 3 (Class 3 The value of percent of control at 10^−7 M was more than 60% or the value of IC50 was more than 200 nM.).

**Q.** `Cc1cc(C)c(C(=O)NC[C@H]2CC[C@@H](Nc3nccc(N(C)C)n3)CC2)c(C)c1` [compound 449, N-[(cis-4-{[4-(dimethylamino)pyrimidin-2-yl]amino}cyclohexyl)methyl]-2,4,6-trimethylbenzamide] was tested. Which class [7] did it give?
**A.** The class was 2 (Class 2: The value of percent of control at 10^−7 M was from 40% to 60% or the value of IC′50 was from 50 nM to 200 nM.).

**Q.** For `COC(=O)NC[C@H]1CC[C@@H](Nc2nccc(N(C)C)n2)CC1` [compound 1655], which class [6] is on record?
**A.** The class was 3 (Class 3 The value of percent of control at 10^−7 M was more than 60% or the value of IC50 was more than 200 nM.).

**Q.** With `COc1cc(CN[C@H]2CC[C@@H](Nc3cc(N(C)C)c4ccccc4n3)CC2)ccc1O` [compound 1120] as the compound, how does the class [4] read?
**A.** Its class is 3 (Class 3 The value of percent of control at 10^−7 M was more than 60% or the value of IC50 was more than 200 nM.).

**Q.** For `CN(C)c1ccnc(N[C@H]2CC[C@@H](NC(=O)c3ccc(F)cc3Cl)CC2)n1` [compound 279], which class [1] is on record?
**A.** The class was 3 (Class 3 The value of percent of control at 10^−7 M was more than 60% or the value of IC50 was more than 200 nM.).

**Q.** Which class [2] does the source give for `Cc1cc(C)c(NC(=S)N[C@H]2CC[C@@H](Nc3cc(N(C)C)c4ccccc4n3)CC2)cc1C` [compound 2289] here?
**A.** Its class is 3 (Class 3 The value of percent of control at 10^−7 M was more than 60% or the value of IC50 was more than 200 nM.).

**Q.** Which class [1] does the source give for `CN(C)c1nc(N[C@H]2CC[C@@H](CNCc3cccc(Br)c3)CC2)nc2c1CCCC2` [compound 1385] here?
**A.** Its class is 3 (Class 3 The value of percent of control at 10^−7 M was more than 60% or the value of IC50 was more than 200 nM.).

**Q.** With `CCSc1ncccc1C(=O)N[C@H]1CC[C@@H](Nc2nccc(N(C)C)n2)CC1` [compound 254] as the compound, how does the class [1] read?
**A.** The class was 3 (Class 3 The value of percent of control at 10^−7 M was more than 60% or the value of IC50 was more than 200 nM.).

— patent publication US20050197350A1, “Novel quinoline, tetrahydroquinazoline, and pyrimidine derivatives and methods of treatment related to the use thereof” (TAISHO PHARMACEUTICAL CO., LTD., priority 2003, published 2005)
